Assay results as given in article PMC10065276, “Enhanced therapeutic window for antimicrobial Pept-ins by investigating their structure-activity relationship” (PLOS ONE, 2023).
Residues, ends and D or L forms follow the SMILES beside them.

Tested on: E. coli BL21
Settings: BL21, 17 h
How it was run: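 EUCAST broth microdilution in Mueller-Hinton medium; end-exponential culture diluted to 0.005 McF (~1.5x10^6 CFU/mL) before 1:1 mixing with two-fold peptide dilutions (0.75 to 100 μg/mL), triplicates.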

SMILES | BL21 MIC | BL21 MIC, SS bond | BL21 MIC, no SS bond
CC(C)C[C@H](NC(=O)CNC(=O)[C@H](CCCNC(=N)N)NC(=O)[C@@H]1CCCN1C(=O)[C@H](CCCNC(=N)N)NC(=O)[C@H](C)NC(=O)[C@@H](NC(=O)[C@H](CC(C)C)NC(=O)[C@H](C)NC(=O)[C@H](CC(C)C)NC(=O)CNC(=O)[C@H](CC(C)C)NC(=O)CNC(=O)[C@@H](N)CCCNC(=N)N)C(C)C)C(=O)NCC(=O)N[C@@H](CC(C)C)C(=O)N[C@@H](C)C(=O)N[C@@H](CC(C)C)C(=O)N[C@H](C(=O)N[C@@H](CCCNC(=N)N)C(=O)N[C@@H](CCCNC(=N)N)C(=O)O)C(C)C [Peptide P2_R9A] (H-RGLGLALVARPRGLGLALVRR-OH) | 12.50 µg/mL | – | –
CC(C)C[C@H](NC(=O)CNC(=O)[C@H](CCCNC(=N)N)NC(=O)[C@@H]1CCCN1C(=O)[C@H](CCCNC(=N)N)NC(=O)[C@H](CCCNC(=N)N)NC(=O)[C@@H](NC(=O)[C@H](CC(C)C)NC(=O)[C@H](C)NC(=O)[C@H](CC(C)C)NC(=O)CNC(=O)[C@H](CC(C)C)NC(=O)CNC(=O)[C@@H](N)CCCNC(=N)N)C(C)C)C(=O)NCC(=O)N[C@@H](CC(C)C)C(=O)N[C@@H](C)C(=O)N[C@@H](CC(C)C)C(=O)N[C@H](C(=O)N[C@@H](C)C(=O)N[C@@H](CCCNC(=N)N)C(=O)O)C(C)C [Peptide P2_R20A] (H-RGLGLALVRRPRGLGLALVAR-OH) | 6.25 µg/mL | – | –
CC(C)C[C@H](NC(=O)CNC(=O)[C@H](CCCNC(=N)N)NC(=O)[C@@H]1CCCN1C(=O)[C@H](CCCNC(=N)N)NC(=O)[C@H](CCCNC(=N)N)NC(=O)[C@H](C)NC(=O)[C@H](CC(C)C)NC(=O)[C@H](C)NC(=O)[C@H](CC(C)C)NC(=O)CNC(=O)[C@H](CC(C)C)NC(=O)CNC(=O)[C@@H](N)CCCNC(=N)N)C(=O)NCC(=O)N[C@@H](CC(C)C)C(=O)N[C@@H](C)C(=O)N[C@@H](CC(C)C)C(=O)N[C@H](C(=O)N[C@@H](CCCNC(=N)N)C(=O)N[C@@H](CCCNC(=N)N)C(=O)O)C(C)C [Peptide P2_V8A] (H-RGLGLALARRPRGLGLALVRR-OH) | 25.00 µg/mL | – | –
CC(C)C[C@H](NC(=O)CNC(=O)[C@H](CCCNC(=N)N)NC(=O)[C@@H]1CCCN1C(=O)[C@H](CCCNC(=N)N)NC(=O)[C@H](CCCNC(=N)N)NC(=O)[C@@H](NC(=O)[C@H](CC(C)C)NC(=O)[C@H](C)NC(=O)[C@H](CC(C)C)NC(=O)CNC(=O)[C@H](CC(C)C)NC(=O)CNC(=O)[C@@H](N)CCCNC(=N)N)C(C)C)C(=O)NCC(=O)N[C@@H](CC(C)C)C(=O)N[C@@H](C)C(=O)N[C@@H](CC(C)C)C(=O)N[C@@H](C)C(=O)N[C@@H](CCCNC(=N)N)C(=O)N[C@@H](CCCNC(=N)N)C(=O)O [Peptide P2_V19A] (H-RGLGLALVRRPRGLGLALARR-OH) | 25.00 µg/mL | – | –
CC(C)C[C@H](NC(=O)CNC(=O)[C@H](CCCNC(=N)N)NC(=O)[C@@H]1CSSC[C@H](NC(=O)[C@@H](NC(=O)[C@H](CC(C)C)NC(=O)[C@H](C)NC(=O)[C@H](CC(C)C)NC(=O)CNC(=O)[C@H](CC(C)C)NC(=O)CNC(=O)[C@@H](N)CCCNC(=N)N)C(C)C)C(=O)N[C@@H](CCCNC(=N)N)C(=O)N[C@@H](CCCNC(=N)N)C(=O)N2CCC[C@H]2C(=O)N1)C(=O)NCC(=O)N[C@@H](CC(C)C)C(=O)N[C@@H](C)C(=O)N[C@@H](CC(C)C)C(=O)N[C@H](C(=O)N[C@@H](CCCNC(=N)N)C(=O)N[C@@H](CCCNC(=N)N)C(=O)O)C(C)C [Peptide P2_var9] | – | 6.25 µg/mL | 6.25 µg/mL
CC[C@H](C)[C@H](NC(=O)CNC(=O)[C@H](CC(C)C)NC(=O)[C@@H](N)CCCNC(=N)N)C(=O)N[C@@H](C)C(=O)N[C@H](C(=O)N[C@@H](C)C(=O)N[C@@H](C)C(=O)N[C@@H](CCCNC(=N)N)C(=O)N[C@@H](CCCNC(=N)N)C(=O)N1CCC[C@H]1C(=O)N[C@@H](CCCNC(=N)N)C(=O)N[C@@H](CC(C)C)C(=O)NCC(=O)N[C@H](C(=O)N[C@@H](C)C(=O)N[C@H](C(=O)N[C@@H](C)C(=O)N[C@@H](CC(C)C)C(=O)N[C@@H](CCCNC(=N)N)C(=O)N[C@@H](CCCNC(=N)N)C(=O)O)C(C)C)[C@@H](C)CC)C(C)C [Peptide P33-8LA] (H-RLGIAVAARRPRLGIAVALRR-OH) | 6.25 µg/mL | – | –
CC[C@H](C)[C@H](NC(=O)CNC(=O)[C@H](CC(C)C)NC(=O)[C@H](CCCNC(=N)N)NC(=O)[C@@H]1CCCN1C(=O)[C@H](CCCNC(=N)N)NC(=O)[C@H](CCCNC(=N)N)NC(=O)[C@H](CC(C)C)NC(=O)[C@H](C)NC(=O)[C@@H](NC(=O)[C@H](C)NC(=O)[C@@H](NC(=O)[C@H](C)NC(=O)[C@H](CC(C)C)NC(=O)[C@@H](N)CCCNC(=N)N)[C@@H](C)CC)C(C)C)C(=O)N[C@@H](C)C(=O)N[C@H](C(=O)N[C@@H](C)C(=O)N[C@@H](CC(C)C)C(=O)N[C@@H](CCCNC(=N)N)C(=O)N[C@@H](CCCNC(=N)N)C(=O)O)C(C)C [Peptide P33-G3A] (H-RLAIAVALRRPRLGIAVALRR-OH) | 6.25 µg/mL | – | –
CC[C@H](C)[C@H](NC(=O)CNC(=O)[C@H](CC(C)C)NC(=O)[C@@H](N)CCCNC(=N)N)C(=O)N[C@@H](C)C(=O)N[C@H](C(=O)N[C@@H](C)C(=O)N[C@@H](CC(C)C)C(=O)N[C@@H](CCCNC(=N)N)C(=O)N[C@@H](CCCNC(=N)N)C(=O)N1CCC[C@H]1C(=O)N[C@@H](CCCNC(=N)N)C(=O)N[C@@H](CC(C)C)C(=O)N[C@@H](C)C(=O)N[C@H](C(=O)N[C@@H](C)C(=O)N[C@H](C(=O)N[C@@H](C)C(=O)N[C@@H](CC(C)C)C(=O)N[C@@H](CCCNC(=N)N)C(=O)N[C@@H](CCCNC(=N)N)C(=O)O)C(C)C)[C@@H](C)CC)C(C)C [Peptide P33-G14A] (H-RLGIAVALRRPRLAIAVALRR-OH) | 6.25 µg/mL | – | –
CC[C@H](C)[C@H](NC(=O)CNC(=O)[C@H](CC(C)C)NC(=O)[C@H](CCCNC(=N)N)NC(=O)[C@@H]1CCCN1C(=O)[C@H](CCCNC(=N)N)NC(=O)[C@H](CCCNC(=N)N)NC(=O)[C@H](CC(C)C)NC(=O)[C@H](C)NC(=O)[C@@H](NC(=O)[C@H](C)NC(=O)[C@H](C)NC(=O)CNC(=O)[C@H](CC(C)C)NC(=O)[C@@H](N)CCCNC(=N)N)C(C)C)C(=O)N[C@@H](C)C(=O)N[C@H](C(=O)N[C@@H](C)C(=O)N[C@@H](CC(C)C)C(=O)N[C@@H](CCCNC(=N)N)C(=O)N[C@@H](CCCNC(=N)N)C(=O)O)C(C)C [Peptide P33-I4A] (H-RLGAAVALRRPRLGIAVALRR-OH) | 12.50 µg/mL | – | –
CC[C@H](C)[C@H](NC(=O)CNC(=O)[C@H](CC(C)C)NC(=O)[C@@H](N)CCCNC(=N)N)C(=O)N[C@@H](C)C(=O)N[C@H](C(=O)N[C@@H](C)C(=O)N[C@@H](CC(C)C)C(=O)N[C@@H](CCCNC(=N)N)C(=O)N[C@@H](CCCNC(=N)N)C(=O)N1CCC[C@H]1C(=O)N[C@@H](CCCNC(=N)N)C(=O)N[C@@H](CC(C)C)C(=O)NCC(=O)N[C@@H](C)C(=O)N[C@@H](C)C(=O)N[C@H](C(=O)N[C@@H](C)C(=O)N[C@@H](CC(C)C)C(=O)N[C@@H](CCCNC(=N)N)C(=O)N[C@@H](CCCNC(=N)N)C(=O)O)C(C)C)C(C)C [Peptide P33-I15A] (H-RLGIAVALRRPRLGAAVALRR-OH) | 12.50 µg/mL | – | –
CC[C@H](C)[C@H](NC(=O)CNC(=O)[C@H](CC(C)C)NC(=O)[C@H](CCCNC(=N)N)NC(=O)[C@@H]1CCCN1C(=O)[C@H](CCCNC(=N)N)NC(=O)[C@H](CCCNC(=N)N)NC(=O)[C@H](CC(C)C)NC(=O)[C@H](C)NC(=O)[C@@H](NC(=O)[C@H](C)NC(=O)[C@@H](NC(=O)CNC(=O)[C@H](C)NC(=O)[C@@H](N)CCCNC(=N)N)[C@@H](C)CC)C(C)C)C(=O)N[C@@H](C)C(=O)N[C@H](C(=O)N[C@@H](C)C(=O)N[C@@H](CC(C)C)C(=O)N[C@@H](CCCNC(=N)N)C(=O)N[C@@H](CCCNC(=N)N)C(=O)O)C(C)C [Peptide P33-L2A] (H-RAGIAVALRRPRLGIAVALRR-OH) | 12.50 µg/mL | – | –
CC[C@H](C)[C@H](NC(=O)CNC(=O)[C@H](C)NC(=O)[C@H](CCCNC(=N)N)NC(=O)[C@@H]1CCCN1C(=O)[C@H](CCCNC(=N)N)NC(=O)[C@H](CCCNC(=N)N)NC(=O)[C@H](CC(C)C)NC(=O)[C@H](C)NC(=O)[C@@H](NC(=O)[C@H](C)NC(=O)[C@@H](NC(=O)CNC(=O)[C@H](CC(C)C)NC(=O)[C@@H](N)CCCNC(=N)N)[C@@H](C)CC)C(C)C)C(=O)N[C@@H](C)C(=O)N[C@H](C(=O)N[C@@H](C)C(=O)N[C@@H](CC(C)C)C(=O)N[C@@H](CCCNC(=N)N)C(=O)N[C@@H](CCCNC(=N)N)C(=O)O)C(C)C [Peptide P33-L13A] (H-RLGIAVALRRPRAGIAVALRR-OH) | 6.25 µg/mL | – | –
CC[C@H](C)[C@H](NC(=O)CNC(=O)[C@H](CC(C)C)NC(=O)[C@H](CCCNC(=N)N)NC(=O)[C@@H]1CCCN1C(=O)[C@H](CCCNC(=N)N)NC(=O)[C@H](CCCNC(=N)N)NC(=O)[C@H](CC(C)C)NC(=O)[C@H](C)NC(=O)[C@@H](NC(=O)[C@H](C)NC(=O)[C@@H](NC(=O)CNC(=O)[C@H](CC(C)C)NC(=O)[C@@H](N)CCCNC(=N)N)[C@@H](C)CC)C(C)C)C(=O)N[C@@H](C)C(=O)N[C@H](C(=O)N[C@@H](C)C(=O)N[C@@H](C)C(=O)N[C@@H](CCCNC(=N)N)C(=O)N[C@@H](CCCNC(=N)N)C(=O)O)C(C)C [Peptide P33-L19A] (H-RLGIAVALRRPRLGIAVAARR-OH) | 6.25 µg/mL | – | –
CC[C@H](C)[C@H](NC(=O)CNC(=O)[C@H](CC(C)C)NC(=O)[C@H](CCCNC(=N)N)NC(=O)[C@@H]1CCCN1C(=O)[C@H](CCCNC(=N)N)NC(=O)[C@H](CCCNC(=N)N)NC(=O)[C@H](CC(C)C)NC(=O)[C@H](C)NC(=O)[C@@H](NC(=O)[C@H](C)NC(=O)[C@@H](NC(=O)CNC(=O)[C@H](CC(C)C)NC(=O)[C@H](C)N)[C@@H](C)CC)C(C)C)C(=O)N[C@@H](C)C(=O)N[C@H](C(=O)N[C@@H](C)C(=O)N[C@@H](CC(C)C)C(=O)N[C@@H](CCCNC(=N)N)C(=O)N[C@@H](CCCNC(=N)N)C(=O)O)C(C)C [Peptide P33-R1A] (H-ALGIAVALRRPRLGIAVALRR-OH) | 6.25 µg/mL | – | –
